Measurements reported in patent US12357603B2, “Acyl sulfonamides for treating cancer” (Bayer Aktiengesellschaft, priority 2019, dated 2025).
Read-outs that look alike come from different tables or passages of the source.

How the values were obtained:
[1] = target: Recombinant human His-tagged Kat6a protein (amino acids 194-810) (Homo sapiens (Human), UniProt Q92794); test: Kat6a activity assay (TR-FRET, acetylation of biotinylated Histone-H4-derived peptide); assay type: biochemical; details: 60 mins at 22° C., read-out: KAT6A-DPF/HAT domain IC50 [mol/l] (arithmetic mean)
Text: Kat6a inhibitory activities of the compounds described in the present invention were quantified using a Fluorescence Resonance Energy Transfer (TR-FRET) assay which measures acetylation of a synthetic, biotinylated Histone-H4-derived peptide by the enzyme.
Recombinant human His-tagged Kat6a protein (amino acids 194-810), was purified in-house from Baculovirus-infected insect cells (Sf9). Histone H4 peptide (amino acids 1-24, […]-VLRD-K(Btn)-amide), which was used as substrate, was synthesized by Biosyntan GmbH, Berlin, Germany. Acetyl Coenzyme A was purchased from Sigma-Aldrich (#A-2056).
Kat6a was incubated for 60 mins at 22° C. in the presence of different concentrations of test substances (0 μM, and within the range 0.01-20 μM) in assay buffer [25 mM Tris/HCl pH 8, 1 mM EGTA, 2.5 mM Glutathion, 0.02% Chicken Albumin, 0.05% Pluronic F127, 25 mM NaCl, 220 nM H4 peptide and 600 nM Acetyl Coenzym A].
The reaction was stopped by addition of Detection Solution (25 mM HEPES pH 7.5, 0.1% BSA, 22 nM SAXL665 (Cisbio #610SAXLE), 100 μM Anacardic Acid (Enzo #ALX-270-381), 1 nM Anti-Histone H4 (ACETYL K8) Antibody (ABCAM #AB15823) and 0.5 nM Anti-Rabbit IgG Eu (Perkin Elmer #AD0083).
The fluorescence emission at 620 nm and 665 nm after excitation at 330-350 nm was measured in a TR-FRET measuring instrument, for instance a Rubystar or a Pherastar (both from BMG Lab Technologies, Offenburg, Germany) or a Viewlux (Perkin-Elmer). The ratio of the emission at 665 nm and at […] was used as indicator of the amount of acetylated peptide.
The resulting data (ratio) were normalized, taking 0% inhibition as the mean value of control measurements where all reagents were included. In this case 50 nl DMSO were used instead of compounds. […] IC50 values were determined by regression analysis based on a 4 parameter equation (minimum, maximum, ICM, Hill; Y=Max+(Min−Max)/(1+(X/ICso) Hill) using the Screener Software (Genedata).
Table 5 depicts the IC50 values of selected examples in biochemical KAT6A and KAT6B3 assays.

[2] = system: ESR1 transcription (luciferase signal in MVLN cells); test: Repression of ESR1 transcription, luciferase reporter in MVLN cells; assay type: cell-based; details: inhibition of luciferase signal in MVLN cells, arithmetic mean
Text: Repression of ESR1 Transcription Upon Treatment of Cells with Compounds
KAT6A controls transcription of the ESR1 gene in breast cancer cells. Compound treatment that interferes with this mechanism was quantified using MVLN cells. These cells constitutively express the ER and are stably transfected with the luciferase (LUC) reporter gene and the corresponding hormone responsive element derived from the 5′-flanking region of the Xenopus Vitellogenin A2 gene (Pons et al., 1990, Demirpense et al., 1993, Joyeux et al., 1993). The repressive effect on ERα transcription activity of a test chemical is directly related to the luciferase measured in the lysate of treated MVLN cells.
Each sample was prepared as duplicate and rim wells were excluded. For luciferase signal determination 100 μl of a 1:1 mixture of Steadylite plus (Perkin Elmer; 6016759) and assay medium was added after 24 h for 15 minutes and measured in Victor X3 (Perkin Elmer). To exclude any effects caused by cell loss during the treatment, cell density was determined using Alamar Blue (Invitrogen; DAL1100). Prior to the luciferase measurement 10 μl Alamar Blue were added to each well and the plates were incubated for 2 h in the incubator. Then fluorescence was measured with Victor X3 (Perkin Elmer) at 530 nm/590 nm.

ZR-75-1 cells = test: Proliferation assay ZR-75-1 (Alamar Blue, 144 h); assay type: cell-based; details: arithmetic mean, read-out: ZR75-1 proliferation assay, EC50 [M] (arithmetic mean)
Text: Proliferation Assays for Compound Characterization
For compound characterization cell survival assays were routinely run in two cell lines. ZR-75-1 is a breast carcinoma cell line containing a focal KAT6A amplification and high KAT6A protein expression. Proliferation of this cell line is inhibited upon treatment with KAT6A inhibitors. As a negative control cell line MDA-MB-436 were used. These cells carry a […] deletion of the KAT6A gene, have a low KAT6A protein expression and are not growth inhibited upon treatment with KAT6A inhibitors.
For measurements cell lines were plated at the below indicated concentration per […] in 96-well plates in a humidified incubator at 37° C. and 5% CO2.
ZR-75-1 (ATCC, CRL-1500; breast carcinoma); 3000 cells per well; culture medium: RPMI 1640 (Biochrom #FG 1215) medium containing 2.5% FBS (Biochrom #S0615).
24 hours later, cells were treated with compounds (stock solution, 10 mM in DMSO) using the HP D300 Digital Dispenser in a concentration range of 2.0×10E-5 M to 2.0×10E-9 M in a single-dot curve with 9 dilutions and a DMSO concentration of 0.2%. Each sample was prepared as triplicate and rim wells were excluded. Plates were incubated at 37° C. and 5% CO2 for 144 h. Cell viability was measured by adding 10 μL of Alamar Blue Reagent (Invitrogen #DAL 1100) and plates were incubated for 2 h at 37° C. and 5% CO2. Fluorescence was measured at 590 nm wavelength with a Tecan Spark or Victor X3 MTP-Reader (PerkinElmer).

Recombinant human His-tagged Kat6a protein (amino acids 194-810), sequence (Q92794 194-810): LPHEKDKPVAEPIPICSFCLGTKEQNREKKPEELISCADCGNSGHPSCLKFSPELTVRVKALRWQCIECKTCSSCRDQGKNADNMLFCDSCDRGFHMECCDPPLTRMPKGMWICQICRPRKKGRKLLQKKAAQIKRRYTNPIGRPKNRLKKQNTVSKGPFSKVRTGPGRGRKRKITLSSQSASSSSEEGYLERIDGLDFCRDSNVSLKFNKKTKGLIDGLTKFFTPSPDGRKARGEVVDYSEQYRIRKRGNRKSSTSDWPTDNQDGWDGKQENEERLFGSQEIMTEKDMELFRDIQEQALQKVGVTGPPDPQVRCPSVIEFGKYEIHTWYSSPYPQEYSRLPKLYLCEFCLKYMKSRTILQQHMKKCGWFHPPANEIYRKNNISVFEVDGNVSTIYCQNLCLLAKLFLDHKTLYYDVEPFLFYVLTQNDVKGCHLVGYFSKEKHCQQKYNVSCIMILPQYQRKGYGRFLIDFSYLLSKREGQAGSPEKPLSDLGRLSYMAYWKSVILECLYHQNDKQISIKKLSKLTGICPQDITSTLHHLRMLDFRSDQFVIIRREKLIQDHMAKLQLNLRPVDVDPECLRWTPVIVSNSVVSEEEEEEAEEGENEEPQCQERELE

Row | SMILES | IC50 [1] | IC50 ([2]; Homo sapiens, MVLN) | EC50 (ZR-75-1 cells; Homo sapiens, ZR-75-1, 144 h) | IC50 [2] | EC50 (ZR-75-1 cells)
1 | CC(c1ccc(Cl)cc1Cl)S(=O)(=O)NC(=O)c1cc2ccc(N(C)C)cc2o1 (racemic) [Example 55, N-[1-(2,4-Dichlorophenyl)ethanesulfonyl]-6-(dimethylamino)-1-benzofuran-2-carboxamide (rac)] | 0.0864 µM | – | – | – | –
2 | CC(c1c(Cl)cccc1Cl)S(=O)(=O)NC(=O)c1cc2ccc(N(C)C)cc2o1 (racemic) [Example 56, N-[1-(2,6-Dichlorophenyl)ethanesulfonyl]-6-(dimethylamino)-1-benzofuran-2-carboxamide (rac)] | 0.0676 µM | – | – | – | –
3 | CC(Oc1cccc(OC2CCC2)c1S(=O)(=O)NC(=O)c1cc2ccc(N(C)C)cc2o1)C(F)(F)F (racemic) [Example 84, N-[2-(Cyclobutyloxy)-6-{[(2S)-1,1,1-trifluoropropan-2-yl]oxy}benzene-1-sulfonyl]-6-(dimethylamino)-1-benzofuran-2-carboxamide (rac)] | 0.0406 µM | 0.226 µM | – | – | –
4 | CN(C)c1ccc2cc(C(=O)NS(=O)(=O)c3ccccc3Br)oc2c1 [Example 18, N-(2-Bromobenzene-1-sulfonyl)-6-(dimethylamino)-1-benzofuran-2-carboxamide] | 0.129 µM | – | – | – | –
5 | CN(C)c1ccc2cc(C(=O)NS(=O)(=O)c3ccccc3-c3ccccc3)oc2c1Br [Example 50, N-([Biphenyl]-2-ylsulfonyl)-7-bromo-6-(dimethylamino)-1-benzofuran-2-carboxamide] | 4.23 µM | – | – | – | –
6 | CN(C)c1ccc2cc(C(=O)NS(=O)(=O)c3ccccc3C(F)(F)F)oc2c1 [Example 54, 6-(Dimethylamino)-N-[2-(trifluoromethyl)benzene-1-sulfonyl]-1-benzofuran-2-carboxamide] | 0.43 µM | – | – | – | –
7 | CCOc1ccc(Br)cc1S(=O)(=O)NC(=O)c1cc2ccc(N(C)C)cc2o1 [Example 57, N-(5-Bromo-2-ethoxybenzene-1-sulfonyl)-6-(dimethylamino)-1-benzofuran-2-carboxamide] | 0.0382 µM | – | – | – | –
8 | CCOc1ccncc1S(=O)(=O)NC(=O)c1cc2ccc(N(C)C)cc2o1 [Example 58, 6-(Dimethylamino)-N-(4-ethoxypyridine-3-sulfonyl)-1-benzofuran-2-carboxamide] | 0.534 µM | – | – | – | –
9 | CN(C)c1ccc2cc(C(=O)NS(=O)(=O)c3ccccc3O)oc2c1 [Example 59, 6-(Dimethylamino)-N-(2-hydroxybenzene-1-sulfonyl)-1-benzofuran-2-carboxamide] | 0.0861 µM | – | – | – | –
10 | CCOC(=O)N1CCC(S(=O)(=O)NC(=O)c2cc3ccc(N(C)C)cc3o2)CC1 [Example 60, Ethyl-4-{[6-(dimethylamino)-1-benzofuran-2-carbonyl]sulfamoyl}piperidine-1-carboxylate] | 3.2 µM | – | – | – | –
11 | CN(C)c1ccc2cc(C(=O)NS(=O)(=O)c3c(OCc4ccccc4)cccc3OC3CCC3)oc2c1 [Example 69, N-[2-(Benzyloxy)-6-(cycolbutyloxy)benzene-1-sulfonyl]-6-(dimethylamino)-1-benzofuran-2-carboxamide] | 0.0045 µM | 0.0521 µM | 3.84e-07 M | – | –
12 | CN(C)c1ccc2cc(C(=O)NS(=O)(=O)c3ccc([N+](=O)[O-])c4cccnc34)oc2c1 [Example 92, 6-(Dimethylamino)-N-(5-nitroquinoline-8-sulfonyl)-1-benzofuran-2-carboxamide] | 0.151 µM | 0.394 µM | 3.43e-07 M | – | –
13 | CCOc1ccc(C(C)C)cc1S(=O)(=O)NC(=O)c1cc2c(F)cc(N(C)C)cc2o1 [Example 107, 6-(Dimethylamino)-N-[2-ethoxy-5-(propan-2-yl)benzene-1-sulfonyl]-4-fluoro-1-benzofuran-2-carboxamide] | 0.00229 µM | 0.00863 µM | 4.49e-08 M | – | –
14 | CN(C)c1ccc2cc(C(=O)NS(=O)(=O)c3ccc(F)c(F)c3F)oc2c1 [Example 153] | 0.906 µM | 2.72 µM | 2.77e-06 M | – | –
15 | Cc1cnc(Cl)c(S(=O)(=O)NC(=O)c2cc3ccc(N(C)C)cc3o2)c1 [Example 154] | 3.08 µM | 11.5 µM | 7e-06 M | – | –
16 | CC(C)Nc1cccc(F)c1S(=O)(=O)NC(=O)c1cc2ccc(N(C)C)cc2o1 [Example 155] | 0.932 µM | 1.93 µM | 7.62e-06 M | – | –
17 | CN(C)c1ccc2cc(C(=O)NS(=O)(=O)c3cccnc3Cl)oc2c1 [Example 156] | 3.53 µM | 0.971 µM | 4.97e-06 M | – | –
18 | Cc1cccc(C2CCCC2)c1S(=O)(=O)NC(=O)c1cc2ccc(N(C)C)cc2o1 [Example 157] | 3.18 µM | 6.45 µM | 9.45e-06 M | – | –
19 | CN(C)c1ccc2cc(C(=O)NS(=O)(=O)c3c(F)cccc3C3CCC3)oc2c1 [Example 158] | 0.684 µM | 1.49 µM | 7.93e-06 M | – | –
20 | Cc1ccc(S(=O)(=O)NC(=O)c2cc3ccc(N(C)C)cc3o2)c(OC(F)F)c1 [Example 159] | 0.233 µM | 0.519 µM | 6.97e-07 M | – | –
21 | CN(C)c1ccc2cc(C(=O)NS(=O)(=O)c3c(F)cccc3OCC3CC3)oc2c1 [Example 160] | 0.324 µM | 0.741 µM | 5.7e-06 M | – | –
22 | CN(C)c1ccc2cc(C(=O)NS(=O)(=O)c3cc(CO)ccc3OC(F)(F)F)oc2c1 [Example 161] | 6.77 µM | > 20 µM | > 2e-05 M | – | –
23 | CCOc1c(F)cccc1S(=O)(=O)NC(=O)c1cc2ccc(N(C)C)cc2o1 [Example 169, 6-(Dimethylamino)-N-(2-ethoxy-3-fluoro-phenyl)sulfonyl-benzofuran-2-carboxamide] | 0.335 µM | 0.34 µM | – | – | –
24 | CCOc1cc(F)ccc1S(=O)(=O)NC(=O)c1cc2ccc(N(C)C)cc2o1 [Example 171, 6-(Dimethylamino)-N-(2-ethoxy-4-fluoro-phenyl)sulfonyl-benzofuran-2-carboxamide] | 0.0949 µM | 0.102 µM | – | – | –
25 | CCOc1ccc(Oc2ccccc2)cc1S(=O)(=O)NC(=O)c1cc2ccc(N(C)C)cc2o1 [Example 174, 6-(Dimethylamino)-N-(2-ethoxy-5-phenoxy-phenyl)sulfonyl-benzofuran-2-carboxamide] | 0.0118 µM | 0.123 µM | – | – | –
26 | Cc1ccc2cccc(S(=O)(=O)NC(=O)c3cc4cc(C#N)c(N(C)C)cc4o3)c2n1 [Example 209, 5-Cyano-6-(dimethylamino)-N-(2-methylquinoline-8-sulfonyl)-1-benzofuran-2-carboxamide] | – | > 20 µM | 9.4e-06 M | – | –
27 | CN(C)c1ccc2cc(C(=O)NS(=O)(=O)c3ccccc3-c3ccccc3)oc2c1 [Example 226] | – | – | – | 0.18 µM | 2.46e-07 M
